Laboratory results published in US12655116B2, “Substituted isophthalic acid diamides” (Bayer Aktiengesellschaft, priority 2020, dated 2026).

Key:
[1] = test system: ABUTH; assay: Pre-emergence herbicidal action against ABUTH; format: in vivo, Abutilon theophrasti
In short: (§1)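 Sandy loam pots, seeds covered with soil, then surface-treated with WP or EC formulations at 600–800 l/ha water plus 0.2% wetting agent. Greenhouse, 3 weeks. Percent damage vs untreated controls.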

[2] = test system: ALOMY; assay: Pre-emergence herbicidal action against ALOMY; format: in vivo, Alopecurus myosuroides; settings: pre-emergence; for pest or weed control at 80 g/ha / pest or weed control at 20 g/ha: Alopecurus myosuroides, 504 h; for pest or weed control at 20 g/ha: scored visually after 3 weeks, 100% = plants have died, 0% = like control plants
In short: as §1

[3] = test system: AMARE; assay: Pre-emergence herbicidal action against AMARE; format: in vivo, Amaranthus retroflexus; settings: for pest or weed control at 20 g/ha / pest or weed control at 80 g/ha: Amaranthus retroflexus, 504 h
In short: as §1

[4] = test system: ECHCG; assay: Pre-emergence herbicidal action against ECHCG; format: in vivo, Echinochloa crus-galli; settings: 80 g/ha; for pest or weed control at 80 g/ha: Echinochloa crus-galli, 504 h
In short: as §1

[5] = test system: MATIN; assay: Pre-emergence herbicidal action against MATIN; format: in vivo, Matricaria inodora; settings: for pest or weed control at 20 g/ha / pest or weed control at 80 g/ha: Tripleurospermum inodorum, 504 h
In short: as §1

[6] = test system: SETVI; assay: Pre-emergence herbicidal action against SETVI; format: in vivo, Setaria viridis; settings: dosage 80 g/ha
In short: as §1

[7] = test system: VERPE; assay: Pre-emergence herbicidal action against VERPE; format: in vivo, Veronica persica; settings: dosage 80 g/ha
In short: as §1

[8] = test system: VIOTR; assay: Pre-emergence herbicidal action against VIOTR; format: in vivo, Viola tricolor
In short: as §1

[9] = test system: ABUTH; assay: Post-emergence herbicidal action against ABUTH; format: in vivo, Abutilon theophrasti; settings: visual assessment about 3 weeks after treatment vs untreated controls
In short: (§2)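 Herbicidal action is a visual percentage rating (0% = as untreated control, 100% = plants dead) made roughly 3 weeks after treatment. Plants were grown in sandy loam in the greenhouse and treated at the one-leaf stage, 2 to 3 weeks post-sowing. Treatment was a foliar spray of wettable-powder or emulsion-concentrate formulations at 600 to 800 l/ha water plus 0.2% wetting agent.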

[10] = test system: ALOMY; assay: Post-emergence herbicidal action against ALOMY; format: in vivo, Alopecurus myosuroides; settings: visual assessment about 3 weeks after treatment vs untreated controls
Description: (§3) Seeds of monocotyledonous and dicotyledonous weed and crop plants are laid out in sandy loam soil in wood-fiber pots, covered with soil and cultivated in a greenhouse under good growth conditions. 2 to 3 weeks after sowing, the test plants are treated at the one-leaf stage. The compounds of the invention, formulated in the form of wettable powders (WP) or as emulsion concentrates (EC), are then sprayed onto the green parts of the plants in the form of an aqueous suspension or emulsion at a water application rate equivalent to 600 to 800 l/ha, with addition of 0.2% wetting agent. After the test plants have been left to stand in the greenhouse under optimal growth conditions for about 3 weeks, the action of the preparations is assessed visually in comparison to untreated controls (herbicidal action in percent (%): 100% activity=the plants have died, 0% activity=like control plants). […] The tables below illustrate, in an illustrative manner, the post-emergence herbicidal action of the compounds of the invention, the herbicidal activity being stated in percent.

[11] = test system: AMARE; assay: Post-emergence herbicidal action against AMARE; format: in vivo, Amaranthus retroflexus; settings: 20 g/ha, visual assessment about 3 weeks after treatment, 100% = plants have died, 0% = like control plants; for pest or weed control at 20 g/ha: Amaranthus retroflexus, 504 h
In short: as §2

[12] = test system: ECHCG; assay: Post-emergence herbicidal action against ECHCG; format: in vivo, Echinochloa crus-galli; settings: dosage 20 g/ha
In short: as §2

[13] = test system: MATIN; assay: Post-emergence herbicidal action against MATIN; format: in vivo, Matricaria inodora; settings: dosage 20 g/ha
Description: as §3

[14] = test system: PHBPU; assay: Post-emergence herbicidal action against PHBPU; format: in vivo, Pharbitis purpurea
In short: as §2

[15] = test system: SETVI; assay: Post-emergence herbicidal action against SETVI; format: in vivo, Setaria viridis; settings: for pest or weed control at 5 g/ha / pest or weed control at 20 g/ha: Setaria viridis, 504 h; for pest or weed control at 5 g/ha: dosage 5 g/ha
In short: as §2

[16] = test system: VERPE; assay: Post-emergence herbicidal action against VERPE; format: in vivo, Veronica persica; settings: 20 g/ha; for pest or weed control at 20 g/ha: Veronica persica, 504 h
Description: as §3

[17] = test system: VIOTR; assay: Post-emergence herbicidal action against VIOTR; format: in vivo, Viola tricolor; settings: for pest or weed control at 20 g/ha: Viola tricolor, 504 h
In short: as §2

[18] = test system: AVEFA; assay: Pre-emergence herbicidal action against AVEFA; format: in vivo, Avena fatua; settings: Avena fatua, 504 h; 80 g/ha, pre-emergence
In short: as §1

[19] = test system: DIGSA; assay: Pre-emergence herbicidal action against DIGSA; format: in vivo, Digitaria sanguinalis; settings: Digitaria sanguinalis, 504 h
In short: as §1

[20] = test system: DIGSA; assay: Post-emergence herbicidal action against DIGSA; format: in vivo, Digitaria sanguinalis; settings: Digitaria sanguinalis, 504 h
In short: as §2

[21] = 80 g/ha, scored visually after 3 weeks vs untreated controls (100% = plants have died, 0% = like control plants)
[22] = 20 g/ha, scored visually after 3 weeks vs untreated controls, 100% = plants have died, 0% = like control plants
[23] = 80 g/ha, scored visually after 3 weeks vs untreated controls, 100% = plants have died, 0% = like control plants
[24] = Alopecurus myosuroides, 504 h, dosage 20 g/ha
[25] = Ipomoea purpurea, 504 h, dosage 20 g/ha

CSc1c(C(=O)Nc2nnnn2C)ccc(C(F)F)c1C(=O)NCC1CC1 [Example 1-90]
90%: Pre-emergence action against VERPE in % [7] | Pre-emergence action against VIOTR in % ([8]; dosage 20 g/ha) | Post-emergence action against ABUTH in % ([9]; dosage 20 g/ha) | Post-emergence action against PHBPU in % ([14]; dosage 20 g/ha) | Post-emergence action against SETVI in % ([15]; dosage 20 g/ha) | Post-emergence action against VERPE in % [16]
80%: Pre-emergence action against ALOMY (herbicidal activity) [2, 21] | Post-emergence action against ABUTH in % ([9]; dosage 5 g/ha) | Post-emergence action against ALOMY in % ([10]; dosage 20 g/ha) | Post-emergence action against MATIN in % [13] | Post-emergence action against VIOTR in % ([17]; 5 g/ha)
100%: Pre-emergence action against ABUTH (herbicidal activity) [1, 21] | Pre-emergence action against ABUTH (herbicidal activity in percent) ([1]; dosage 20 g/ha, scored visually after 3 weeks vs untreated controls, 100% = plants have died, 0% = like control plants) | Pre-emergence action against AMARE in % [3, 22] | Pre-emergence action against AMARE in % [3, 21] | Pre-emergence action against ECHCG in % [4] | Pre-emergence action against MATIN in % ([5]; dosage 20 g/ha) | Pre-emergence action against MATIN in % ([5]; dosage 80 g/ha) | Pre-emergence action against SETVI in % [6] | Pre-emergence action against VIOTR in % ([8]; dosage 80 g/ha) | Post-emergence action at 20 g/ha against AMARE in % [11] | Post-emergence action against ECHCG in % [12] | Post-emergence action against VIOTR in % ([17]; 20 g/ha)

Cn1nnnc1NC(=O)c1ccc(C(F)(F)F)c(C(=O)NCC(F)(F)F)c1Cl [Example 1-133]
100%: pest or weed control at 80 g/ha ([1]; Abutilon theophrasti, 504 h, 80 g/ha, scored visually after 3 weeks vs untreated controls (100% = plants have died, 0% = like control plants)) | pest or weed control at 80 g/ha [3, 23] | pest or weed control at 80 g/ha [18] | pest or weed control at 80 g/ha [4] | pest or weed control at 80 g/ha ([5]; dosage 80 g/ha) | pest or weed control at 80 g/ha ([6]; Setaria viridis, 504 h) | pest or weed control at 20 g/ha ([8]; Viola tricolor, 504 h, dosage 20 g/ha) | pest or weed control at 80 g/ha ([8]; Viola tricolor, 504 h, dosage 80 g/ha) | pest or weed control at 80 g/ha ([19]; dosage 80 g/ha) | pest or weed control at 20 g/ha [11] | pest or weed control at 20 g/ha ([15]; dosage 20 g/ha)
80%: pest or weed control at 20 g/ha [14, 25] | pest or weed control at 20 g/ha ([17]; 20 g/ha)
90%: pest or weed control at 80 g/ha [2, 21] | pest or weed control at 20 g/ha [2] | pest or weed control at 20 g/ha [3, 22] | pest or weed control at 20 g/ha ([5]; dosage 20 g/ha) | pest or weed control at 20 g/ha ([19]; dosage 20 g/ha) | pest or weed control at 20 g/ha [10, 24] | pest or weed control at 5 g/ha [15] | pest or weed control at 20 g/ha [16] | pest or weed control at 5 g/ha ([20]; 5 g/ha) | pest or weed control at 20 g/ha ([20]; 20 g/ha)

CNC(=O)c1c(Br)ccc(C(=O)Nc2nnnn2C)c1Br [Example 1-342]
80%: pest or weed control at 20 g/ha ([5]; dosage 20 g/ha) | pest or weed control at 20 g/ha ([12]; Echinochloa crus-galli, 504 h) | pest or weed control at 5 g/ha ([14]; Ipomoea purpurea, 504 h, dosage 5 g/ha) | pest or weed control at 20 g/ha [16] | pest or weed control at 20 g/ha ([17]; 20 g/ha)
100%: pest or weed control at 80 g/ha [2, 21] | pest or weed control at 20 g/ha [3, 22] | pest or weed control at 80 g/ha [3, 23] | pest or weed control at 80 g/ha [18] | pest or weed control at 80 g/ha [4] | pest or weed control at 80 g/ha ([5]; dosage 80 g/ha) | pest or weed control at 20 g/ha [10, 24] | pest or weed control at 20 g/ha [11]
90%: pest or weed control at 20 g/ha [2] | pest or weed control at 5 g/ha ([9]; Abutilon theophrasti, 504 h, dosage 5 g/ha) | pest or weed control at 20 g/ha ([9]; Abutilon theophrasti, 504 h, dosage 20 g/ha) | pest or weed control at 5 g/ha ([10]; Alopecurus myosuroides, 504 h, dosage 5 g/ha) | pest or weed control at 20 g/ha [14, 25] | pest or weed control at 5 g/ha [15] | pest or weed control at 20 g/ha ([15]; dosage 20 g/ha)
